# Laboratory results taken from patent US6191113A, “Peptide for inhibiting growth of smooth muscle cells” (Juridical Foundation The Chemo-Sero-Therapeutic Research …, priority 1995, dated 2001).
# Tests used:
# [1] = tested on: Vascular smooth muscle cells from human aorta; experiment: Growth inhibition of smooth muscle cells by full-length TFPI or TFPI lacking the C-terminal region (cell count, DME); type: cell-based; conditions: 50 μg/ml in DME, counted nine days after plating, 3 wells, Student's t-test
# Procedure: Vascular smooth muscle cells from human aorta (purchased from Kurabo K.K.) were used and subjected to passage culture with Dulbecco modified Eagle medium (hereinafter referred to as "DME") supplemented with 10% fetal calf serum. The smooth muscle cells with six passages were used in the following experiment.
# The smooth muscle cells suspended in DME were plated on a 48 well culture plate (manufactured by Iwaki Glass K.K.) at a cell density of 5,000 cells/well and incubated in CO2 incubator at 37° C. Two days after plating, the culture medium was exchanged with DME containing 50 μg/ml of full-length TFPI or 50 μg/ml of TFPI lacking the C-terminal region or with DME alone as a control and culture was continued in CO2 incubator at 37° C. while the culture medium was exchanged with a fresh medium on every 2 days. The culture medium was used at 0.3 ml/well. Nine days after plating, the cells attached to the plate were detached by treatment with a trypsin/EDTA solution and then a cell number per well was counted with a hemocytometer. FIG. 1 is a graph showing a mean cell number as well as a standard deviation for three wells in each group.
# smooth muscle cells = experiment: Cellular toxicity with Cytotox 96 kit; type: cell-based, human; conditions: Cytotox 96 kit (Promega)
substance,measurement,setting,value
full-length TFPI: intact human tissue factor pathway inhibitor purified from culture supernatant of Chinese hamster ovary cell line,activity to inhibit growth of smooth muscle cells (cell number per well vs control),[1],significantly decreased cell number
same,cellular toxicity,smooth muscle cells,did not exhibit cellular toxicity
